Laboratory results taken from patent publication US20170050957A1, “4-AMINO-6-(HETEROCYCLIC)PICOLINATES AND 6-AMINO-2-(HETEROCYCLIC)PYRIMIDINE-4-CARBOXYLATES AND THEIR USE AS HERBICIDES” (Dow AgroSciences LLC, priority 2013, published 2017).
Like-named read-outs stand apart in the source and are kept apart here.

Key:
[1] = test system: Key Grass and Sedge Weeds as well as Grass Crops; assay: Post-emergent Test II herbicidal activity (Table 16); type: in vivo; conditions: post-emergence, 336 h, 14 d; for pest or weed control at 35 g/ha: 35 g ai/ha; for pest or weed control at 70 g/ha: 70 g ai/ha; for pest or weed control at 140 g/ha: 140 g ai/ha
In short: (§1)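 Plants at first-second true leaf stage, grown 7-21 d in greenhouse (~15 h photoperiod, 23-29 °C day), were track-sprayed at 187 L/ha with compound in acetone/DMSO/water/isopropanol/crop oil/Triton X-155 at a high rate plus 1/2× to 1/16× dilutions. Injury scored visually after 14 d versus untreated plants, 0 (none) to 100% (complete kill).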

[2] = test system: Key Broadleaf Weed and Crop Species; assay: Post-emergent Test II herbicidal activity (Table 15); type: in vivo; conditions: post-emergence, 336 h, 14 d; for pest or weed control at 35 g/ha: 35 g ai/ha; for pest or weed control at 70 g/ha: 70 g ai/ha; for pest or weed control at 140 g/ha: 140 g ai/ha
In short: as §1

[3] = Cyperus esculentus, yellow nutsedge (Cyperus esculentus), read-out: Visual Growth Reduction (%) 14 Days After Application, CYPES
[4] = Echinochloa crus-galli, barnyardgrass (Echinochloa crus-galli), read-out: Visual Growth Reduction (%) 14 Days After Application, ECHCG
[5] = Oryza sativa, rice (Oryza sativa), read-out: Visual Growth Reduction (%) 14 Days After Application, ORYSA
[6] = Setaria faberi, giant foxtail (Setaria faberi), read-out: Visual Growth Reduction (%) 14 Days After Application, SETFA
[7] = Triticum aestivum, wheat, spring (Triticum aestivum), read-out: Visual Growth Reduction (%) 14 Days After Application, TRZAS
[8] = Zea mays, maize, corn (Zea mays), read-out: Visual Growth Reduction (%) 14 Days After Application, ZEAMX
[9] = Abutilon theophrasti, velvetleaf (Abutilon theophrasti), read-out: Visual Growth Reduction (%) 14 Days After Application, ABUTH
[10] = Amaranthus retroflexus, redroot pigweed (Amaranthus retroflexus), read-out: Visual Growth Reduction (%) 14 Days After Application, AMARE
[11] = Brassica napus, oilseed rape, canola (Brassica napus), read-out: Visual Growth Reduction (%) 14 Days After Application, BRSNN
[12] = Chenopodium album, lambsquarters (Chenopodium album), read-out: Visual Growth Reduction (%) 14 Days After Application, CHEAL
[13] = Euphorbia heterophylla, wild poinsettia (Euphorbia heterophylla), read-out: Visual Growth Reduction (%) 14 Days After Application, EPHHL
[14] = Helianthus annuus, sunflower (Helianthus annuus), read-out: Visual Growth Reduction (%) 14 Days After Application, HELAN

| Compound | pest or weed control at 35 g/ha [1, 3] [%] | pest or weed control at 70 g/ha [1, 3] [%] | pest or weed control at 140 g/ha [1, 3] [%] | pest or weed control at 35 g/ha [1, 4] [%] | pest or weed control at 70 g/ha [1, 4] [%] | pest or weed control at 140 g/ha [1, 4] [%] | pest or weed control at 35 g/ha [1, 5] [%] | pest or weed control at 70 g/ha [1, 5] [%] | pest or weed control at 140 g/ha [1, 5] [%] | pest or weed control at 35 g/ha [1, 6] [%] | pest or weed control at 70 g/ha [1, 6] [%] | pest or weed control at 140 g/ha [1, 6] [%] | pest or weed control at 35 g/ha [1, 7] [%] | pest or weed control at 70 g/ha [1, 7] [%] | pest or weed control at 140 g/ha [1, 7] [%] | pest or weed control at 35 g/ha [1, 8] [%] | pest or weed control at 70 g/ha [1, 8] [%] | pest or weed control at 140 g/ha [1, 8] [%] | pest or weed control at 35 g/ha [2, 9] [%] | pest or weed control at 70 g/ha [2, 9] [%] | further results |
| --- | --- | --- | --- | --- | --- | --- | --- | --- | --- | --- | --- | --- | --- | --- | --- | --- | --- | --- | --- | --- | --- |
| COC(=O)c1nc(-c2ccc(Cl)c3cc[nH]c23)c(F)c(N)c1Cl [Compound 1.46] | 0 to 29 | 0 to 29 | 0 to 29 | 0 to 29 | 0 to 29 | 0 to 29 | 0 to 29 | 0 to 29 | 0 to 29 | 0 to 29 | 0 to 29 | 0 to 29 | 0 to 29 | 0 to 29 | 0 to 29 | 0 to 29 | 0 to 29 | 0 to 29 | 0 to 29 | 0 to 29 | pest or weed control at 140 g/ha [2, 9]: 0 to 29%; pest or weed control at 35 g/ha [2, 10]: 0 to 29%; pest or weed control at 70 g/ha [2, 10]: 0 to 29%; pest or weed control at 140 g/ha [2, 10]: 60 to 74%; pest or weed control at 35 g/ha [2, 11]: 0 to 29%; pest or weed control at 70 g/ha [2, 11]: 0 to 29%; pest or weed control at 140 g/ha [2, 11]: 0 to 29%; pest or weed control at 35 g/ha [2, 12]: 75 to 84%; pest or weed control at 70 g/ha [2, 12]: 85 to 94%; pest or weed control at 140 g/ha [2, 12]: 95 to 100%; pest or weed control at 35 g/ha [2, 13]: 0 to 29%; pest or weed control at 70 g/ha [2, 13]: 0 to 29%; pest or weed control at 140 g/ha [2, 13]: 0 to 29%; pest or weed control at 35 g/ha [2, 14]: 0 to 29%; pest or weed control at 70 g/ha [2, 14]: 30 to 44%; pest or weed control at 140 g/ha [2, 14]: 45 to 59% |
| COC(=O)c1nc(-c2ccc3occc3c2)nc(N)c1OC [Compound 2.06] | 0 to 29 | 0 to 29 | 0 to 29 | 0 to 29 | 45 to 59 | 95 to 100 | 0 to 29 | 0 to 29 | 0 to 29 | 0 to 29 | 0 to 29 | 0 to 29 | 0 to 29 | 0 to 29 | 0 to 29 | 0 to 29 | 0 to 29 | 0 to 29 | 0 to 29 | 0 to 29 | pest or weed control at 140 g/ha [2, 9]: 75 to 84%; pest or weed control at 35 g/ha [2, 10]: 75 to 84%; pest or weed control at 70 g/ha [2, 10]: 95 to 100%; pest or weed control at 140 g/ha [2, 10]: 95 to 100%; pest or weed control at 35 g/ha [2, 11]: 30 to 44%; pest or weed control at 70 g/ha [2, 11]: 60 to 74%; pest or weed control at 140 g/ha [2, 11]: 85 to 94%; pest or weed control at 35 g/ha [2, 12]: 60 to 74%; pest or weed control at 70 g/ha [2, 12]: 75 to 84%; pest or weed control at 140 g/ha [2, 12]: 85 to 94%; pest or weed control at 35 g/ha [2, 13]: 30 to 44%; pest or weed control at 70 g/ha [2, 13]: 75 to 84%; pest or weed control at 140 g/ha [2, 13]: 95 to 100%; pest or weed control at 35 g/ha [2, 14]: 60 to 74%; pest or weed control at 70 g/ha [2, 14]: 75 to 84%; pest or weed control at 140 g/ha [2, 14]: 85 to 94% |
| COc1c(N)nc(-c2cc3[nH]ccc3cc2F)nc1C(=O)O [Compound 1.37] | 0 to 29 | 0 to 29 | 0 to 29 | 0 to 29 | 0 to 29 | 0 to 29 | 0 to 29 | 0 to 29 | 0 to 29 | 0 to 29 | 0 to 29 | 0 to 29 | 0 to 29 | 0 to 29 | 0 to 29 | 0 to 29 | 0 to 29 | 0 to 29 | 0 to 29 | 0 to 29 | pest or weed control at 140 g/ha [2, 9]: 0 to 29%; pest or weed control at 35 g/ha [2, 10]: 0 to 29%; pest or weed control at 70 g/ha [2, 10]: 0 to 29%; pest or weed control at 140 g/ha [2, 10]: 0 to 29%; pest or weed control at 35 g/ha [2, 11]: 30 to 44%; pest or weed control at 70 g/ha [2, 11]: 60 to 74%; pest or weed control at 140 g/ha [2, 11]: 75 to 84%; pest or weed control at 35 g/ha [2, 12]: 0 to 29%; pest or weed control at 70 g/ha [2, 12]: 0 to 29%; pest or weed control at 140 g/ha [2, 12]: 0 to 29%; pest or weed control at 35 g/ha [2, 13]: 0 to 29%; pest or weed control at 70 g/ha [2, 13]: 0 to 29%; pest or weed control at 140 g/ha [2, 13]: 0 to 29%; pest or weed control at 35 g/ha [2, 14]: 0 to 29%; pest or weed control at 70 g/ha [2, 14]: 0 to 29%; pest or weed control at 140 g/ha [2, 14]: 0 to 29% |
